This is an account of results in US8846928B2 (Portola Pharmaceuticals, Inc., priority 2010, dated 2014).

The target of this assay is T1, full length active recombinant SYK enzyme (Homo sapiens, UniProt P43405).
T1 construct: full length active recombinant SYK enzyme (Millipore, Calif.); purchased Millipore
Kind of assay: Inhibition of Syk tyrosine phosphorylation activity (LANCE TR-FRET kinase assay). Format: biochemical.

For the molecule `NC(=O)c1cc(F)c(N[C@@H]2CCOC[C@@H]2N)nc1Nc1cccc(Cl)c1` [Example 386, 6-((3R,4R)-3-aminotetrahydro-2H-pyran-4-ylamino)-2-(3-chlorophenylamino)-5-fluoronicotinamide], the IC50 – broadly, the concentration that gives 50% inhibition – is 1 to 10 nM.
Next, `Cn1ncc2c(Nc3nc(N[C@@H]4CCCC(F)(F)[C@@H]4N)c(F)cc3C(N)=O)cccc21` [Example 387, 6-((1R,2R)-2-amino-3,3-difluorocyclohexylamino)-5-fluoro-2-(1-methyl-1H-indazol-4-ylamino)nicotinamide]: 100 to 1000 nM; `NC(=O)c1cc(F)c(N[C@H]2[C@@H](N)CCCC2(F)F)nc1Nc1cccc(Cl)c1` [Example 388, 6-((1S,6S)-6-amino-2,2-difluorocyclohexylamino)-2-(3-chlorophenylamino)-5-fluoronicotinamide]: 1 to 10 nM; `Cn1ncc2c(Nc3nc(N[C@H]4[C@@H](N)CCCC4(F)F)c(F)cc3C(N)=O)cccc21` [Example 389, 6-((1S,6S)-6-amino-2,2-difluorocyclohexylamino)-5-fluoro-2-(1-methyl-1H-indazol-4-ylamino)nicotinamide]: 1 to 10 nM.
For `CCn1ccc2c(Nc3nc(N[C@@H]4CCCC(F)(F)[C@@H]4N)c(F)cc3C(N)=O)cccc21` [Example 390, 6-((1R,2R)-2-amino-3,3-difluorocyclohexylamino)-2-(1-ethyl-1H-indol-4-ylamino)-5-fluoronicotinamide], the IC50 fell in the range of 10 to 100 nM.
Under `CC(C)n1ccc2c(Nc3nc(N[C@@H]4CCCC(F)(F)[C@@H]4N)c(F)cc3C(N)=O)cccc21` [Example 391, 6-((1R,2R)-2-amino-3,3-difluorocyclohexylamino)-5-fluoro-2-(1-isopropyl-1H-indol-4-ylamino)nicotinamide] stands 10 to 100 nM; under `CC(C)Cn1ccc2c(Nc3nc(N[C@@H]4CCCC(F)(F)[C@@H]4N)c(F)cc3C(N)=O)cccc21` [Example 392, 6-((1R,2R)-2-amino-3,3-difluorocyclohexylamino)-5-fluoro-2-(1-isobutyl-1H-indol-4-ylamino)nicotinamide], 100 to 1000 nM.
Consider `NC(=O)c1cc(F)c(N[C@@H]2CCCC[C@@H]2N)nc1Nc1csc2ncccc12` [Example 393], for which the half-inhibitory concentration (IC50) lay in the range of 1 to 10 nM.
Turning to `NC(=O)c1cc(F)c(N[C@@H]2CCCC[C@@H]2N)nc1Nc1csc2ccncc12` [Example 394, 6-((1R,2S)-2-aminocyclohexylamino)-5-fluoro-2-(thieno[3,2-c]pyridin-3-ylamino)nicotinamide], the 50% inhibitory concentration (IC50) lay in the range of 10 to 100 nM.
As for `CN1C(=O)Cc2c(Nc3nc(N[C@@H]4CCCC(F)(F)[C@@H]4N)c(F)cc3C(N)=O)cccc21` [Example 395, 6-((1R,2R)-2-amino-3,3-difluorocyclohexylamino)-5-fluoro-2-(1-methyl-2-oxoindolin-4-ylamino)nicotinamide], the IC50 is above 1000 nM.
As for `Cn1ccc2c(Nc3nc(N[C@@H]4CCCC[C@@H]4N)ccc3C(N)=O)cccc21` [Example 396, 6-((1R,2S)-2-aminocyclohexylamino)-2-(1-methyl-1H-indol-4-ylamino)nicotinamide], the IC50 is 1 to 10 nM.
For `Cn1ccc2cc(Nc3nc(N[C@@H]4CCCC[C@@H]4N)ccc3C(N)=O)ccc21` [Example 397, 6-((1R,2S)-2-aminocyclohexylamino)-2-(1-methyl-1H-indol-5-ylamino)nicotinamide], the 50% inhibitory concentration (IC50) was 1 to 10 nM.
Take `Cn1ncc2c(Nc3nc(N[C@@H]4CCCC[C@@H]4N)ccc3C(N)=O)cccc21` [Example 398, 6-((1R,2S)-2-aminocyclohexylamino)-2-(1-methyl-1H-indazol-4-ylamino)nicotinamide]: the IC50 fell in the range of 1 to 10 nM.
Under `Cn1ncc2cc(Nc3nc(N[C@@H]4CCCC[C@@H]4N)ccc3C(N)=O)ccc21` [Example 399, 6-((1R,2S)-2-aminocyclohexylamino)-2-(1-methyl-1H-indazol-5-ylamino)nicotinamide] stands 1 to 10 nM; under `NC(=O)c1ccc(N[C@@H]2CCCC[C@@H]2N)nc1Nc1ccc2scnc2c1` [Example 400, 6-((1R,2S)-2-aminocyclohexylamino)-2-(benzo[d]thiazol-5-ylamino)nicotinamide], 1 to 10 nM; under `NC(=O)c1ccc(N[C@@H]2CCCC[C@@H]2N)nc1Nc1cccc2ncsc12` [Example 401, 6-((1R,2S)-2-aminocyclohexylamino)-2-(benzo[d]thiazol-7-ylamino)nicotinamide], 1 to 10 nM.
Turning to `NC(=O)c1ccc(N[C@@H]2CCCC[C@@H]2N)nc1Nc1csc2ncccc12` [Example 402, 6-((1R,2S)-2-aminocyclohexylamino)-2-(thieno[2,3-b]pyridin-3-ylamino)nicotinamide], the IC50 is below 1 nM.
Turning to `NC(=O)c1ccc(N[C@@H]2CCCC[C@@H]2N)nc1Nc1ccc2ncsc2c1` [Example 403, 6-((1R,2S)-2-aminocyclohexylamino)-2-(benzo[d]thiazol-6-ylamino)nicotinamide], the IC50 lay in the range of 1 to 10 nM.
Turning to `NC(=O)c1ccc(N[C@@H]2CCCC[C@@H]2N)nc1Nc1ccc2nc(O)sc2c1` [Example 404, 6-((1R,2S)-2-aminocyclohexylamino)-2-(2-hydroxybenzo[d]thiazol-6-ylamino)nicotinamide], the IC50 fell in the range of 1 to 10 nM.
Under `NC(=O)c1cc(F)c(N[C@@H]2CCCC(F)(F)[C@@H]2N)nc1Nc1csc2ncccc12` [Example 405, 6-((1R,2R)-2-amino-3,3-difluorocyclohexylamino)-5-fluoro-2-(thieno[2,3-b]pyridin-3-ylamino)nicotinamide] stands 10 to 100 nM; under `NC(=O)c1ccc(N[C@@H]2CCCC[C@@H]2N)nc1Nc1cnc2ccncc2c1` [Example 406, 2-(1,6-naphthyridin-3-ylamino)-6-((1R,2S)-2-aminocyclohexylamino)nicotinamide], 10 to 100 nM; under `NC(=O)c1ccc(N[C@@H]2CCCC[C@@H]2N)nc1Nc1cnc2cc[nH]c2c1` [Example 407], 10 to 100 nM.
With `NC(=O)c1cc(F)c(N[C@@H]2CCCC[C@@H]2N)nc1Nc1cc(F)c[n+]([O-])c1` [Example 408, 3-(6-((1R,2S)-2-aminocyclohexylamino)-3-carbamoyl-5-fluoropyridin-2-ylamino)-5-fluoropyridine 1-oxide], the IC50 was 100 to 1000 nM.
For the molecule `NC(=O)c1ccc(N[C@@H]2CCCC[C@@H]2N)nc1Nc1cnn2ccccc12` [Example 419, 6-((1R,2S)-2-aminocyclohexylamino)-2-(pyrazolo[1,5-a]pyridin-3-ylamino)nicotinamide], the concentration for half-maximal inhibition (IC50) lay in the range of 1 to 10 nM.
With `NC(=O)c1cc(F)c(N[C@@H]2CCCC(F)(F)[C@@H]2N)nc1Nc1cnn2ccccc12` [Example 420, 6-((1R,2R)-2-amino-3,3-difluorocyclohexylamino)-5-fluoro-2-(pyrazolo[1,5-a]pyridin-3-ylamino)nicotinamide], the IC50 was 10 to 100 nM.
Next, `NC(=O)c1cnc(N[C@@H]2CCCC[C@@H]2N)cc1Nc1cnn2ccccc12` [Example 421, 6-((1R,2S)-2-aminocyclohexylamino)-4-(pyrazolo[1,5-a]pyridin-3-ylamino)nicotinamide]: above 1000 nM.
For `NC(=O)c1cnc(N[C@@H]2CCCC[C@@H]2N)cc1Nc1csc2ncccc12` [Example 422], the half-inhibitory concentration (IC50) is above 1000 nM.
Consider `CC[C@@H](Nc1nc(Nc2csc3ncccc23)c(C(N)=O)cc1F)C(N)=O` [Example 423, (R)-6-(1-amino-1-oxobutan-2-ylamino)-5-fluoro-2-(thieno[2,3-b]pyridin-3-ylamino)nicotinamide], for which the IC50 lay within 10 to 100 nM.
As for `CC[C@@H](Nc1nc(Nc2cnn3ccccc23)c(C(N)=O)cc1F)C(N)=O` [Example 424, (R)-6-(1-amino-1-oxobutan-2-ylamino)-5-fluoro-2-(pyrazolo[1,5-a]pyridin-3-ylamino)nicotinamide], the IC50 is 10 to 100 nM.
With `CC[C@@H](Nc1ccc(C(N)=O)c(Nc2csc3ncccc23)n1)C(N)=O` [Example 425, (R)-6-(1-amino-1-oxobutan-2-ylamino)-2-(thieno[2,3-b]pyridin-3-ylamino)nicotinamide], the half-inhibitory concentration (IC50) lay in the range of 10 to 100 nM.
